Measurements taken from patent US12421191B2, “3-hydroxyoxindole derivatives as CRHR2 antagonist” (RaQualia Pharma Inc., priority 2020, dated 2025).

biological target: T1, human CRHR2-alpha (Homo sapiens, UniProt Q13324); assay: cAMP functional assay for human CRHR2 (LANCE Ultra TR-FRET); type: cell-based; settings: inhibition of cAMP production in CHO-K1 cells stably expressing human CRHR2-alpha, EC90 of human urocortin2 as agonist; read-out: IC50 against CRHR2
T1 construct: host or cells: CHO-K1
T1 sequence (Q13324 1-411): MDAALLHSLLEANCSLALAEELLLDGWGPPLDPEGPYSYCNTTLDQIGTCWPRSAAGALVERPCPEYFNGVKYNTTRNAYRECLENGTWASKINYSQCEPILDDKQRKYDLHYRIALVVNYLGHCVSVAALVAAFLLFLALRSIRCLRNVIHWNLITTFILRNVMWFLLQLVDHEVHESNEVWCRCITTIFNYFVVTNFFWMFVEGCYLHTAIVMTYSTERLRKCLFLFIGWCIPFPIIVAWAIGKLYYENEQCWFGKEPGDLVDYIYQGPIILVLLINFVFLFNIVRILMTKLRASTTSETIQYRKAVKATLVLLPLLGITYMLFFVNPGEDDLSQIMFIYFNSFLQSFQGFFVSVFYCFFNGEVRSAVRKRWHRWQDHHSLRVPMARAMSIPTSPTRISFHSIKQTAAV
Procedure: cAMP functional assay for human CRHR2 The ability of the compounds of this invention to inhibit either CRHR2 is assessed by 3′,5′-cyclic adenosine monophosphate (cAMP) production in cells using the LANCE Ultra cAMP assay kit (ParkinElmer), which are designed based on the homogeneous time-resolved fluorescence resonance energy transfer (TR-FRET) immunoassay.
CHO-K1 (Chinese hamster ovary) cells stably expressing human CRHR2-alpha (DiscoveRX, Cat. 95-0048C2) are grown in HAM's F12 media supplemented with 10% fetal bovine serum (FBS), 100 units/mL penicillin G, 100 microg/mL hygromycin and 0.5 microg/mL geneticin at 37° C. in 5% CO2 humidified incubator to 80% confluence. After 7 hours starvation treatment in culture media containing 0.1% FBS, the cells are washed with Hanks balanced salt solution (HBSS) and cryopreserved.
For cAMP assay, frozen cells are thawed and washed with HBSS, followed by resuspending cells in assay buffer (HBSS containing 0.1% bovine serum albumin, 0.5 mM isobutylmethylxanthine and 5 mM Hepes, pH 7.4) at the appropriate concentration for the assay. The cell suspensions are plated on 384-well microplates (Greiner Bio-One) at a density of 4,000 cells per well. After preincubating the cells with various concentrations of the compounds for 30 min at 25° C., an assay buffer containing EC90 concentration of agonist is added and the cells are incubated for 30 min at 25° C. Human urocortin2 (Peptide Institute) is used as agonists for CRHR2. For the termination of assay, europium-labeled cAMP tracer and ULight (registered trademark) dye labeled cAMP antibodies, both prepared with Lance-Ultra cAMP detection reagent (PerkinElmer) are added in the plate and incubate for 60 min at 25° C. After incubation, TR-FRET signal is detected by EnVision plate reader (PerkinElmer). The IC50 values for compounds are calculated from dose-response curves by fitting the percent inhibition using XLfit (ID Business Solutions).

SMILES | IC50 [nM]
COc1ccc(C2(O)C(=O)N(C[C@H]3CC[C@H](NC(=O)c4cc(Cl)cnc4C)CC3)c3ccccc32)c(F)c1F (stereo partly shown) [Example 139, 5-chloro-N-((1r,4r)-4-((3-(2,3-difluoro-4-methoxyphenyl)-3-hydroxy-2-oxoindolin-1-yl)methyl)cyclohexyl)-2-methylnicotinamide] | < 200
COc1ccc(F)c(C2(O)C(=O)N(C[C@H]3CC[C@H](NC(=O)c4cc(Cl)cnc4C(F)F)CC3)c3ccc(F)cc32)c1 (stereo partly shown) [Example 168, 5-chloro-2-(difluoromethyl)-N-((1r,4r)-4-((5-fluoro-3-(2-fluoro-5-methoxyphenyl)-3-hydroxy-2-oxoindolin-1-yl)methyl)cyclohexyl) nicotinamide] | < 200
Cc1ccc2c(c1)N(C[C@H]1CC[C@H](NC(=O)c3cc(Cl)cnc3C(F)F)CC1)C(=O)C2(O)c1ccccc1F (stereo partly shown) [Example 148, 5-chloro-2-(difluoromethyl)-N-((1r,4r)-4-((3-(2-fluorophenyl)-3-hydroxy-6-methyl-2-oxoindolin-1-yl)methyl)cyclohexyl) nicotinamide] | < 200
Cc1ncc(Cl)cc1C(=O)N[C@H]1CC[C@H](CN2C(=O)C(O)(c3cccc(F)c3F)c3ccc(F)cc32)CC1 (stereo partly shown) [Example 143, 5-chloro-N-((1r,4r)-4-((3-(2,3-difluorophenyl)-6-fluoro-3-hydroxy-2-oxoindolin-1-yl)methyl)cyclohexyl)-2-methylnicotinamide] | < 200
Cc1cccc(C2(O)C(=O)N(C[C@H]3CC[C@H](NC(=O)c4cc(Cl)cnc4C(F)F)CC3)c3ccccc32)c1F (stereo partly shown) [Example 63, 5-chloro-2-(difluoromethyl)-N-((1r,4r)-4-((3-(2-fluoro-3-methylphenyl)-3-hydroxy-2-oxoindolin-1-yl)methyl)cyclohexyl) nicotinamide] | < 200
O=C(N[C@H]1CC[C@H](CN2C(=O)C(O)(c3cc(F)cs3)c3ccccc32)CC1)c1cc(Cl)cnc1C(F)F (stereo partly shown) [Example 98, 5-chloro-2-(difluoromethyl)-N-((1r,4r)-4-((3-(4-fluorothiophen-2-yl)-3-hydroxy-2-oxoindolin-1-yl)methyl)cyclohexyl) nicotinamide] | < 200
O=C(N[C@H]1CC[C@H](CN2C(=O)C(O)(c3ccccc3F)c3ccccc32)CC1)c1cc(Cl)cnc1C(F)F (stereo partly shown) [Example 33, 5-chloro-2-(difluoromethyl)-N-((1r,4r)-4-((3-(2-fluorophenyl)-3-hydroxy-2-oxoindolin-1-yl)methyl)cyclohexyl) nicotinamide] | < 200
Cc1cc(C2(O)C(=O)N(C[C@H]3CC[C@H](NC(=O)c4cc(Cl)cnc4C(F)F)CC3)c3ccccc32)cs1 (stereo partly shown) [Example 130, 5-chloro-2-(difluoromethyl)-N-((1r,4r)-4-((3-hydroxy-3-(5-methylthiophen-3-yl)-2-oxoindolin-1-yl)methyl)cyclohexyl) nicotinamide] | < 200
O=C(N[C@H]1CC[C@H](CN2C(=O)C(O)(c3ccc(F)cc3F)c3ccccc32)CC1)c1cc(Cl)cnc1C(F)F (stereo partly shown) [Example 53, 5-chloro-2-(difluoromethyl)-N-((1r,4r)-4-((3-(2,4-difluorophenyl)-3-hydroxy-2-oxoindolin-1-yl)methyl)cyclohexyl) nicotinamide] | < 200
COc1ccc(F)c(C2(O)C(=O)N(C[C@H]3CC[C@H](NC(=O)c4cc(Cl)cnc4C(F)(F)F)CC3)c3ccccc32)c1 (stereo partly shown) [Example 185, 5-chloro-N-((1r,4r)-4-((3-(2-fluoro-5-methoxyphenyl)-3-hydroxy-2-oxoindolin-1-yl)methyl)cyclohexyl)-2-(trifluoromethyl)nicotinamide] | < 200
O=C(N[C@H]1CC[C@H](CN2C(=O)C(O)(c3ccccc3F)c3ccc(F)cc32)CC1)c1cc(Cl)cnc1C(F)F (stereo partly shown) [Example 83, 5-chloro-2-(difluoromethyl)-N-((1r,4r)-4-((6-fluoro-3-(2-fluorophenyl)-3-hydroxy-2-oxoindolin-1-yl)methyl)cyclohexyl) nicotinamide] | < 200
Cc1cccc2c1C(O)(c1ccc(F)cn1)C(=O)N2C[C@H]1CC[C@H](NC(=O)c2cc(Cl)cnc2C(F)F)CC1 (stereo partly shown) [Example 178] | < 200
O=C(N[C@H]1CC[C@H](CN2C(=O)C(O)(c3ccc(Cl)cn3)c3cc(F)ccc32)CC1)c1cc(Cl)cnc1C(F)F (stereo partly shown) [Example 125, 5-chloro-N-((1r,4r)-4-((3-(5-chloropyridin-2-yl)-5-fluoro-3-hydroxy-2-oxoindolin-1-yl)methyl)cyclohexyl)-2-(difluoromethyl)nicotinamide] | < 200
O=C(N[C@H]1CC[C@H](CN2C(=O)C(O)(c3ccncc3F)c3ccccc32)CC1)c1cc(Cl)cnc1C(F)F (stereo partly shown) [Example 10, 5-chloro-2-(difluoromethyl)-N-((1r,4r)-4-((3-(3-fluoropyridin-4-yl)-3-hydroxy-2-oxoindolin-1-yl)methyl)cyclohexyl) nicotinamide] | < 200
O=C(N[C@H]1CC[C@H](CN2C(=O)C(O)(c3cccc(Cl)c3F)c3ccccc32)CC1)c1cc(Cl)cnc1C(F)F (stereo partly shown) [Example 67, 5-chloro-N-((1r,4r)-4-((3-(3-chloro-2-fluorophenyl)-3-hydroxy-2-oxoindolin-1-yl)methyl)cyclohexyl)-2-(difluoromethyl)nicotinamide] | < 200
COc1ccc(F)c(C2(O)C(=O)N(C[C@H]3CC[C@H](NC(=O)c4cc(Cl)cnc4C(F)F)CC3)c3cccc(F)c32)c1 (stereo partly shown) [Example 189, 5-chloro-2-(difluoromethyl)-N-((1r,4r)-4-((4-fluoro-3-(2-fluoro-5-methoxyphenyl)-3-hydroxy-2-oxoindolin-1-yl)methyl)cyclohexyl) nicotinamide] | < 200
O=C(N[C@H]1CC[C@H](CN2C(=O)C(O)(c3ccc(Cl)cn3)c3ccccc32)CC1)c1cc(Cl)cnc1C(F)F (stereo partly shown) [Example 13, 5-chloro-N-((1r,4r)-4-((3-(5-chloropyridin-2-yl)-3-hydroxy-2-oxoindolin-1-yl)methyl)cyclohexyl)-2-(difluoromethyl)nicotinamide] | < 200
O=C(N[C@H]1CC[C@H](CN2C(=O)C(O)(c3ccc(F)c(F)c3F)c3ccccc32)CC1)c1cc(Cl)cnc1C(F)F (stereo partly shown) [Example 135, 5-chloro-2-(difluoromethyl)-N-((1r,4r)-4-((3-hydroxy-2-oxo-3-(2,3,4-trifluorophenyl)indolin-1-yl)methyl)cyclohexyl) nicotinamide] | < 200
O=C(N[C@H]1CC[C@H](CN2C(=O)C(O)(c3cccc(F)c3F)c3ccccc32)CC1)c1cc(Cl)cnc1Cl (stereo partly shown) [Example 167, 2,5-dichloro-N-((1r,4r)-4-((3-(2,3-difluorophenyl)-3-hydroxy-2-oxoindolin-1-yl)methyl)cyclohexyl) nicotinamide] | < 200
COc1ccc(F)c(C2(O)C(=O)N(C[C@H]3CC[C@H](NC(=O)c4cc(Cl)cnc4C(F)F)CC3)c3ccccc32)c1 (stereo partly shown) [Example 74, 5-chloro-2-(difluoromethyl)-N-((1r,4r)-4-((3-(2-fluoro-5-methoxyphenyl)-3-hydroxy-2-oxoindolin-1-yl)methyl)cyclohexyl) nicotinamide] | < 200
O=C(N[C@H]1CC[C@H](CN2C(=O)C(O)(c3ccccc3F)c3cccc(F)c32)CC1)c1cc(Cl)cnc1C(F)F (mixture of isomers) [Example 82, 5-chloro-2-(difluoromethyl)-N-((1r,4r)-4-((7-fluoro-3-(2-fluorophenyl)-3-hydroxy-2-oxoindolin-1-yl)methyl)cyclohexyl) nicotinamide] | < 200
Cc1ncc(Cl)cc1C(=O)N[C@H]1CC[C@H](CN2C(=O)C(O)(c3cc(F)cc(F)c3F)c3ccccc32)CC1 (stereo partly shown) [Example 132, 5-chloro-N-((1r,4r)-4-((3-hydroxy-2-oxo-3-(2,3,5-trifluorophenyl)indolin-1-yl)methyl)cyclohexyl)-2-methylnicotinamide] | < 200
